Test [1] has as its system autosomal Alport mice (COL4A3^−/−). Put plainly: Hearing study in Alport mice (ABR, noise exposure, strial capillary basement membrane TEM). In kind it is in vivo, mouse. The source says:
(§1) Vehicle or sparsentan was given daily by oral gavage to autosomal Alport mice (COL4A3^−/−) on the 129/Sv background (male and female) in five separate studies: a pilot study, an early intervention study (treated from 3-7 weeks of age), a late intervention study (treated from 5-7 weeks of age after the onset of glomerular (GM) changes), a lifespan study, and a hearing study (FIG. 1). The early intervention, late intervention, lifespan, and hearing studies also included mice treated with a comparator, losartan, which was given orally at 3-4 weeks of age in the early intervention study, in drinking water at 4-7 weeks of age in the early intervention study, and in drinking water at 5-7 weeks in the late intervention study.
(§2) Efficacy renal endpoints included blood urea nitrogen (BUN), proteinuria (urine protein to creatinine ratio, or UP/C), glomerulosclerosis, tubulointerstitial fibrosis, leucocyte infiltration, and glomerular basement morphology (GBM) using transmission electron microscopy (TEM). Endpoints in the inner ear included auditory brain stem response (ABR) threshold as a measure of noise-induced hearing loss, strial capillary basement membrane thickness, and inner ear pathology by TEM.
For the hearing study, wild-type or Alport mice were treated according to daily from 3-8.5 weeks of age by oral gavage with vehicle (0.5% methylcellulose 4000 cps/0.25% Tween® 80 in distilled water) or 120 mg/kg sparsentan or losartan at 20 mg/kg by oral gavage from 3-4 weeks of age (during weaning) and 10 mg/kg in drinking water from 4-7 weeks of age (n=5). The progression of Alport disease was assessed at 7 weeks of age by the amount of proteinuria (via urinalysis reagent strips—data not shown). Strial capillary basement membrane (SCBM) width was analyzed by transmission electron microscopy (TEM), and accumulation of extracellular matrix (ECM) in SCBM was determined by immunofluorescence (IF) microscopy using an antibody to laminin α2. Hearing ability and sensitivity to noise were assessed between 7 and 8 weeks of age by Auditory Brainstem Response (ABR), pre-noise exposure. A subset of each treatment group was then exposed to a metabolic noise stress for 10 hours. Mice receiving the noise treatment were randomly selected for overstimulation with a 106 dB sound pressure level (SPL), narrow band noise (8-16 kHz) for 10 hours, usually 10 PM to 8 AM. The noise exposure was conducted in a sound-isolation booth. A speaker was suspended from the ceiling. Wire cages with individual compartments were located midway between the floor and speaker. Mice were hydrated prior to placement in the cage and were provided free access to food. The noise exposure occurred at 8 weeks of age. The amount of hearing loss caused by the metabolic noise exposure was determined 5 days post-exposure.

For test [2] the test system is unchanged. The test is described as follows: Early intervention study in Alport mice (treated from 3-7 weeks of age). It is filed as in vivo, mouse.
Source text: as §1, §2
In the early intervention study, wild-type and Alport mice were dosed daily by oral gavage with vehicle or sparsentan at 120 mg/kg from 3 to 7 weeks of age (7-8 mice per group), or with losartan at 20 mg/kg by oral gavage from 3-4 weeks of age (during weaning) and 10 mg/kg in drinking water from 4-7 weeks of age.
(§3) For the pilot, early intervention, late intervention, and lifespan studies, spot urine was sampled pre-study and weekly during treatment and analyzed for protein (UP) and creatinine (C) to determine proteinuria (UP/C). At the end of each study the animals were euthanized, blood samples were taken, BUN was measured from serum, and kidneys were harvested for structural and immuno-fluorescent measurements. Glomerulosclerosis was assessed by immunofluorescence (IF) using an antibody to fibronectin (FN). Visual counting of the number of sclerotic glomeruli as a proportion of the total number of glomeruli per slide was used to calculate the percentage of sclerotic glomeruli. Sections were co-stained with an anti-CD45 antibody to indicate leucocyte infiltration. Tubulointerstitial fibrosis was determined by IF of kidney sections using an antibody to collagen 1 (COL1). Tubulointerstitial fibrosis (TIF) scoring was conducted by visual assessment of the COL1 positive area as a percentage of the total cortical area and was performed blinded. The fibrosis scoring (“Fibrosis Score”) was categorized according to visual judgment of percentage of total cortical area, as: 0=<5%, 1=5-10%, 2=10-25%, 3=25-50%, 4=50-75%, or 5=75-100%. Ultrastructural changes in GBM and podocyte morphology were observed using transmission electron microscopy (TEM).

Test [3] concerns laminin α2 in stria of Alport mice. The test is described as follows: Immunofluorescence of laminin α2 in stria of Alport mice. It is filed as in vivo, mouse. The settings on record: losartan-treated Alport mice (10 mg/kg), early intervention study. As for the experimental part: In the pilot study, designed to determine an optimal efficacious dose of sparsentan, Alport mice (3-4 per group) were dosed with vehicle (0.5% methylcellulose 4000 cps/0.25% Tween® 80 in distilled water) or sparsentan at 60 mg/kg or 200 mg/kg from 3 to 7 weeks of age for 28 days. Although 200 mg/kg sparsentan was efficacious in the pilot study, BUN levels were higher than those of Alport mice dosed with 60 mg/kg sparsentan (Table 1; FIG. 2A; FIG. 2B). This observation led to the selection of a 120 mg/kg dose of sparsentan to take forward into the early intervention study. During the pilot study, blood pressure (BP) was measured weekly using the CODA2 tail cuff system. […]
For the hearing study, wild-type or Alport mice were treated according to daily from 3-8.5 weeks of age by oral gavage with vehicle (0.5% methylcellulose 4000 cps/0.25% Tween® 80 in distilled water) or 120 mg/kg sparsentan or losartan at 20 mg/kg by oral gavage from 3-4 weeks of age (during weaning) and 10 mg/kg in drinking water from 4-7 weeks of age (n=5). The progression of Alport disease was assessed at 7 weeks of age by the amount of proteinuria (via urinalysis reagent strips—data not shown). […] Hearing ability and sensitivity to noise were assessed between 7 and 8 weeks of age by Auditory Brainstem Response (ABR), pre-noise exposure. […]

Test [4] relates to autosomal Alport mice (COL4A3^−/−). Put plainly: Late intervention study in Alport mice (treated from 5-7 weeks of age). It is filed as in vivo, mouse.
Source text: as §1, §2
In the late intervention study, wild-type or Alport mice (8 mice per group) were dosed for 14 days according to the same methods used in the early intervention study but beginning at 5 weeks of age, i.e., dosed with vehicle, 120 mg/kg of sparsentan, or 10 mg/kg losartan starting at 5 weeks of age for 14 days. In this study, untreated Alport mice at 5 weeks of age were also used as baseline controls.
as §3
For a baseline comparison for late intervention, glomerulosclerosis and fibrosis were determined in kidney samples taken from 5-week-old untreated Alport mice.

Test [5] has the same test system. The test is described as follows: Lifespan study in Alport mice. It is filed as in vivo, mouse. To be noted: dosing as in early intervention study, continued until 10% loss of peak body weight; P<0.05.
Source text: as §1
In the lifespan study, Alport mice (n=10) were dosed using the same methodology as in the early intervention study, except that dosing was continued until mice had lost 10% of their peak body weight, after which they were euthanized.
For the pilot, early intervention, late intervention, and lifespan studies, spot urine was sampled pre-study and weekly during treatment and analyzed for protein (UP) and creatinine (C) to determine proteinuria (UP/C). At the end of each study the animals were euthanized, blood samples were taken, BUN was measured from serum, and kidneys were harvested for structural and immuno-fluorescent measurements. Glomerulosclerosis was assessed by immunofluorescence (IF) using an antibody to fibronectin (FN). Visual counting of the number of sclerotic glomeruli as a proportion of the total number of glomeruli per slide was used to calculate the percentage of sclerotic glomeruli. Sections were co-stained with an anti-CD45 antibody to indicate leucocyte infiltration. Tubulointerstitial fibrosis was determined by IF of kidney sections using an antibody to collagen 1 (COL1). Tubulointerstitial fibrosis (TIF) scoring was conducted by visual assessment of the COL1 positive area as a percentage of the total cortical area and was performed blinded. […]

The test system of test [6] is murine models of Alport syndrome. To be noted: cited from earlier work; for Glomerulosclerosis and interstitial fibrosis in murine models of Alport syndrome: literature (Dufek et al. 2016; Gross et al. 2003).
The mark [7] stands for this setting: Alport mice, losartan 20/10 mg/kg, at 7 wk of age, mean ± SD.
Where [8] appears, read: Alport mice late intervention, losartan 10 mg/kg, mean ± SD.

Entries after “also recorded” stand apart in the source; their conditions may differ. Marks after values point to notes of the source that are not given here.

Take `CCCCc1nc(Cl)c(CO)n1Cc1ccc(-c2ccccc2-c2nnn[nH]2)cc1` [losartan, Losartan, reference compound]: the “Hearing ability before noise exposure (ABR)” value in test [1] (7-8-week-old mice, sparsentan 120 mg/kg or losartan 20/10 mg/kg) is on record as “did not differ significantly”. The “Increase in strial capillary basement membrane width observed in vehicle-treated Alport mice” value in test [1] (Alport mice treated 3-8.5 weeks of age with sparsentan or losartan) is recorded as “prevented”. Also, in test [1] (Alport mice, losartan 20/10 mg/kg from 3 weeks of age, TEM, n=5), the “mean SCBM width±SD” value was 55.0±5.9 nm. For the same compound, the “Hearing loss after noise exposure vs vehicle-treated Alport mice” value in test [1] (any frequency tested, losartan 20/10 mg/kg) is “no significant effect; also recorded: no significant difference”. In addition, the “Stria vascularis pathology by TEM” value in test [1] (treated Alport mice, FIGS. 14-23) is on record as “variable pathology”. Further, the UP/C in test [2] (Alport mice, losartan 20/10 mg/kg from 3 wk, at 4 wk of age, mean ± SD, n = 8) was 0.6 ± 1.3 mg/mg; in test [2] (Alport mice, losartan 20/10 mg/kg, at 5 wk of age, mean ± SD), 6.7 ± 4.0 mg/mg; in test [2] (Alport mice, losartan 20/10 mg/kg, at 6 wk of age, mean ± SD), 11.2 ± 5.7 mg/mg; in test [2] (setting [7]), 11.5 ± 7.0 mg/mg; in test [4] (Alport mice late intervention, losartan 10 mg/kg for 14 days from 5 wk of age, mean ± SD, n = 8), 18.1 ± 4.6 mg/mg. Further, the results for the BUN in test [2] (setting [7]) and in test [4] (setting [8]) were 18.2 ± 3.5 mg/dL and 15.5 ± 3.4 mg/dL, respectively. Besides, the “Sclerotic Glomeruli (%)” value in test [2] (setting [7]) was found to be 1.7 ± 3.3 %. Moreover, in test [2] (Alport mice, losartan 20/10 mg/kg, at 7 wk, score 0=<5% to 5=75-100% COL1 area, mean ± SD), the “Fibrosis Score” value was 0.0 ± 0.0. Besides, the “Development of nephropathy in Alport mice” value in test [2] (sparsentan 120 mg/kg 28 days or losartan 20 mg/kg 7 days then 10 mg/kg 21 days, from 3 weeks of age) was “prevented”. The “UP/C, BUN, glomerulosclerosis, and fibrosis vs. vehicle-treated Alport mice” value in test [2] (sparsentan 120 mg/kg or losartan 20/10 mg/kg from 3 weeks of age, P<0.05) was “significant attenuation”. In addition, the TIF or glomerulosclerosis result in test [2] (sparsentan- or losartan-treated Alport mice, early intervention) is given as “little to no”. Also, the “Accumulation of laminin α2 in stria” value in test [3] is given as “did not appear different from vehicle-treated Alport mice”. The “GS (% Sclerotic glomeruli)” value in test [4] (setting [8]) is given as 16.0 ± 11.9*^$ %. In test [4] (Alport mice late intervention, losartan 10 mg/kg, tubulointerstitial fibrosis score, mean ± SD), this compound gave a TIF of 1.0 ± 1.2. The “UP/C and fibrosis vs. vehicle-treated Alport mice” value in test [4] (losartan 10 mg/kg, late intervention) is given as “not significant”. In test [4] (losartan 10 mg/kg, late intervention, P<0.05), the “Attenuation of BUN and glomerulosclerosis vs. vehicle-treated Alport mice” value is recorded as “significant”. Also, the “Development of fibrosis, CD45^+ leucocyte infiltration, and glomerulosclerosis” value in test [4] (sparsentan 120 mg/kg or losartan 10 mg/kg, 5-7 weeks of age) is “attenuated; also recorded: prevented”. For the same compound, in test [5], the “Lifespan compared to vehicle-treated Alport mice” value was “significantly longer; also recorded: significantly greater”.

As to `CCOC(=O)[C@H](CCc1ccccc1)N[C@@H](C)C(=O)N1[C@H](C(=O)O)C[C@@H]2CCC[C@@H]21` [ramipril], the “Glomerulosclerosis and interstitial fibrosis in murine models of Alport syndrome” value in test [6] is given as “ameliorate”.

Turning to `Cc1cc2c(cc1CC(=O)c1sccc1S(=O)(=O)Nc1onc(C)c1Cl)OCO2` [sitaxentan], the “Glomerulosclerosis and interstitial fibrosis in murine models of Alport syndrome” value in test [6] is “ameliorate”. For the same compound, the “Basement membrane in the cochlea of the ear in Alport mice” value in test [6] (literature (Meehan et al. 2016)) is listed as “protect”.

Values taken from patent publication US11207299B2, “Biphenyl sulfonamide compounds for the treatment of type IV collagen diseases” (Travere Therapeutics, Inc., priority 2018, dated 2021).
